Results published in US6635235B1, “Bifunctional chelating agent for the design and development of site specific radiopharmaceuticals and biomolecule conjugation strategy” (The Curators of the University of Missouri, priority 1999, dated 2003).

Assay: Stability of -PH2 compounds under storage and reaction conditions
Type: physicochemical
Details: variety of solvents, wide pH range and temperature range
Description: As a result of working with the NH2(CH2)3 PH2 intermediate, it was recognized that the intermediate was unexpectedly stable under a variety of storage and reaction conditions.
Furthermore, the reactivity of the —PH2 groups in these compounds toward molecules containing a wide spectrum of functional groups (including carboxylic acids, amines, thiols, and proteins) was remarkably low or non-measurable.

## NCCCP [NH2(CH2)3 PH2, 3-Aminopropylphosphine]
  stability under storage and reaction conditions: reasonably stable
